Laboratory results as given in US20230174662A1, “METHODS OF TREATING CASTRATE-RESISTANT PROSTATE CANCER” (FONDAZIONE PER L'ISTITUTO ONCOLOGICO DI RICERCA (IOR), priority 2019, published 2023).

What was measured:
[1] = test system: CDCP1 in LNCaP ADS cells; conditions: DHT stimulation 16 h after 2 days in FAD
Description: C. Left panel, Quantitative real time PCR analysis of CDCP1 mRNA levels in LNCaP grown in full media, full androgen depreviation (FAD) and stimulated with dihydrotestosterone (DHT 1 μM, 16 h) after grown for 2 days in FAD. Right panel, Western blot analysis of CDCP1, p-SRC, SRC, p-AKT, AKT, p-ERK1/2 and ERK1/2 in LNCaP grown in full media, FAD and stimulated with DHT (1 μM, 16 h) after grown for 2 days in FAD.
Tissue and cell lysates were prepared with RIPA buffer (Catalog #9806, Cell Signaling Technology) with PMSF (Phenylmethanesulfonyl fluoride; Catalog #329-98-6, Sigma). Protein concentrations of the lysates were measured by Pierce BCA Protein Assay Kit (Catalog #23225, Thermo Scientific). The lysates were then resolved by SDS-PAGE and immunoblotted with the indicated antibodies.
RNA was extracted using TRIzol® Plus RNA Purification Kit (Catalog #12183555, Life technologies). 1 μg of total RNA was used for cDNA synthesis using SuperScript® III Platinum® One-Step qRT-PCR Kit (Catalog #11732-020, Life technologies). […] All qRT-PCR data presented was normalized using GAPDH, HRPT or 18S rRNA.

[2] = test system: LNCaP xenografts; test: LNCaP xenograft tumour growth in SCID mice; type: in vivo, mouse; conditions: single agent, LNCaP s.c. in SCID mice, one week; Enzalutamide 10 mg/kg
From the text: (§1) FIG. 7A. Left panel, Quantification of fold change in growth by crystal violet in LNCaP kept in full media and in LNCaP kept in full media and treated with mAb-CUB4. Right panel, Quantification of fold change in growth by crystal violet in LNCaP kept in FAD and in LNCaP kept in FAD and treated with mAb-CUB4. B. Left panel, Xenografts tumour growth (mm3) of LNCaP cell line untreated, treated with Enzalutamide, Immuno-liposome and treated with the combination of Enzalutamide and immuno-liposome. Right panel, quantification of fold change in protein levels of Cleaved Caspase 3 in LNCaP xenografts groups. C. Western blot analysis of CDCP1 expression, p-SRC and Cleaved Caspase 3 in LNCaP xenografts groups.
(§2) These findings were further validated in LNCaP-abl cells, an androgen insensitive cell line. […] Given the fact that CDCP1 expression is elevated by androgen deprivation, we postulated that targeting CDCP1 could serve as a powerful tool to treat prostate cancers treated with enzalutamide. […] Since senescence works as a double edge sword that may stimulate cancer cell growth in certain conditions, we decided to develop a novel anti-CDCP1 dual steal immunoliposome carrying doxorubicin (anti-CDCP1 ILs) to eliminate the CDCP1 overexpressing resistant cells.

[3] = test system: CDCP1 in LNCaP xenografts; test: Western blot of CDCP1 in LNCaP xenografts; type: in vivo, mouse; conditions: Enzalutamide alone
From the text: as §1, §2

| Compound | CDCP1 expression and protein levels [1] | effect on tumor growth [2] | levels of CDCP1 by Western blot [3] |
| --- | --- | --- | --- |
| C[C@]12CCC(=O)C[C@@H]1CC[C@@H]1[C@@H]2CC[C@]2(C)[C@@H](O)CC[C@@H]12 [DHT, 5α-Dihydrotestosterone] | reduced its expression and protein levels | – | – |
| CNC(=O)c1ccc(N2C(=S)N(c3ccc(C#N)c(C(F)(F)F)c3)C(=O)C2(C)C)cc1F [Enzalutamide, 4-[3-[4-cyano-3-(trifluoromethyl)phenyl]-5,5-dimethyl-4-oxo-2-sulfanylideneimidazolidin-1-yl]-2-fluoro-N-methylbenzamide] | – | minor effect on tumor growth | significant increased levels of CDCP1 |
